Reference: patent US12084442B2, “Naphthyridinone derivatives for the treatment of a disease or disorder” (Novartis AG, priority 2021, dated 2024)

Key:
GIRK1/4 = GIRK1/4 (Homo sapiens (Human), UniProt P48544+P48549); experiment: GIRK1/4 activity assay (Quattro/IonWorks population patch clamp, inward potassium current); format: cell-based; conditions: GIRK1/4 HEK293 stable cells; current inhibition normalized to DMSO-only control
Experimental: The GIRK1/4 activity of a compound according to the present invention was assessed by the following in vitro method.
• a. External buffer: 10 mM NaCl, 50 mM Na Gluconate, 80 mM K Gluconate, 1.8 mM CaCl2, 1 mM MgCl2, 10 mM HEPES, 10 mM Glucose, pH 7.4; osmolarity 300-310 Osm/L. • b. Internal buffer: 30 mM KCl, 100 mM K Gluconate, 1 mM MgCl2, 10 mM HEPES, 1 mM EGTA, 10 mM NaCl, pH 7.2; osmolarity 284-292 Osm/L. Compounds: • c. Prepare seven-fold compound dilution series (10 mM to 20 uM) in 100% DMSO, in 384-well polypropylene plates. • d. Propafenone (Sigma Aldrich, catalog number P4670) was used as a positive control and DMSO for neutral control • e. Resuspend 1 μl of compounds in DMSO into 66.7 μl external buffer in 384-well polypropylene plate and load into Plate 1 section of Molecular Devices Quattro® Quattro Setup: • f. Load 384-well Population Patch Plate (Molecular Devices #9000-0902) into Quattro • g. Fill Quattro F-soak trough with 20% DMSO and 50% EtOH • h. Fill Quattro buffer trough with external buffer • i. Attach internal buffer flask to Quattro internal buffer tubing • j. Attach PBS (Phosphate Buffered Saline, minus Ca^++ and Mg^++, pH7.4) bottle to F-head & E-head wash on Quattro Antibiotic: • k. Resuspend 5.1-5.8 mg amphotericin B (Sigma Aldrich, catalog number A2411) in 175 μl DMSO • l. Add the resulting solution to 50 mL internal buffer and attach to antibiotic tubing port on Quattro Cells: • m. Use GIRK1/4 HEK293 stable cells (obtained from ChanTest, 14656 Neo Parkway, Cleveland, Ohio 44128) grown to ˜80% confluency in the following cell culture medium: DMEM containing 10% (v/v) Fetal Bovine Serum, Penicillin/Streptomycin (at “IX” concentration from a 100× stock), 0.5 mg/mL G418 and 0.1 mg/mL Zeocin. • n. Detach cells using Detachin (Genlantis, 11011 Torreyana, San Diego, CA 92121), washed with PBS (minus Ca^++ and Mg^++) and resuspend in external buffer (5 mL final volume at 2.0-2.1×10^6 cells/mL) • o. Load into cell trough of Quattro Assay Protocol:
Quattro was controlled using IonWorks v2 software to perform the following steps: • p. Added 3.5 μl cells plus 3.5 μl external buffer to wells of Quattro Patch Plate® • q. Circulated amphotericin B and internal buffer onto cells • r. Applied the following voltage protocol: Pulse 1: 15 mV for 300 milliseconds (ms), followed by Pulse 2: −120 mV for 400 ms, then Pulse 3: −15 mV for 400 ms, and finally Pulse 4: −120 mV to 40 mV over 500 ms (this is a voltage ramp). • s. Measured magnitude of inward potassium current at time point between 1200-1220 ms from start of Pulse 1 (i.e., during the voltage ramp phase). • t. Added 3.5 μl of diluted compounds (or DMSO) to wells and repeated […] (final compound concentrations are 50 uM to 0.1 uM, and each concentration was tested in quadruplicate—i.e., in 4 separate wells). • u. The difference between current magnitude pre vs. post-compound gave a measure of GIRK1/4 inhibition. Data Analysis:
IC50 values were calculated by plotting the percentage of current inhibition (normalized to the DMSO-only control) as a function of compound concentration using standard data analysis software.

[1] = Pharmacokinetic properties in rats (IV and PO, whole blood LC-MS/MS); format: in vivo, Spargue Dawley/CD, male; conditions: for Rat AUC0-24 h 3 mg/kg: 3 mg/kg PO, suspension; for Rat AUC0-24 h 3 mg/kg / clearance: whole blood; for clearance: male, Sprague Dawley/CD, rat, IV dosing (0.3-1 mg/kg), CL = Dose/AUCinf; for Rat F: oral bioavailability, PO 3 mg/kg vs IV
Experimental: The pharmacokinetic properties of the compounds in rats were assessed by the following in vivo studies as described below.
At least four days before first drug administration, the rats (250-350 g) were anesthetized and, under aseptic conditions, catheters were surgically implanted into the left and right jugular veins (one for blood collection and the other one for intravenous injection). The catheters were exteriorized and fixed at the neck. For analgesic treatment, animals received analgesics before surgery and subsequently twice at appropriate times after surgery. The freely-moving animals equipped with catheters are kept individually in Macrolon cages, with free access to food and water throughout the experiment. After a recovery phase of at least 4 days, a single test compound was administered intravenously or orally, based upon the individual body weights.
The test articles were administered as solution in NMP:PEG 200 (10:90 v/v). Test articles where no solution can be obtained were rejected and not used in discrete or cassette dosing.
The test article were administered as suspension in MC:Tween 80:water (0.5:0.1:99.4 w/v/v).
The test article was administered as solution and as a bolus injection or as short I.V. infusion (30 seconds) via the left jugular vein catheter to conscious rats. The dose volume was 0.5 mL/kg body weight.
The test article was administered as a solution or suspension into the esophagus via a gavage tube to conscious rats. The dose volume was 5 mL/kg body weight. The exact start time of dosing and exact dose volume was noted.
Blood samples (20 μL) were collected from the right jugular vein catheter of cannulated animals (if JV catheter becomes non patent during the PK experiment (i.e., after dosing), blood can exceptionally be collected by tail vein puncture but it must be clearly specified into the in-life observations and data study rep) in tubes containing 10% of blood of 2% W/V K2 EDTA (2.0 mg/mL) at the different time intervals. Blood was collected following IV dosing at 0.083, 0.25, 0.5, 1, 2, 4, 7 and 24 h post dose. Blood was collected following PO dosing: 0.25, 0.5, 1, 2, 4, 7 and 24 h post dose.
The concentrations of compounds in whole blood were quantified using a liquid chromatography/mass spectrometry (LC-MS/MS) assay. 20 μL of each blood sample were precipitated with 100 μL of acetonitrile containing generic internal standards (carbamazepine/telmisartan/verapamil; c=50 ng/mL). The samples were vortexed thoroughly then centrifuged (5 min, 4° C.). The supernatant (80 μL) was transferred to a clean 96-well plate and mixed with 80 μL of water.
The samples were injected (1 to 20 μL) onto suitable analytical columns, using various isocratic methods and flow rates. Mobile phases typically consisting of 0.1% formic acid in water (solvent A) and 0.1% formic acid in acetonitrile (solvent B) with additional modifiers, if needed. Compounds and the internal standards were eluted at various retention times. The HPLC systems were interfaced to mass spectrometers. MS/MS analyses were carried out using electrospray ionization (ESI), typically in the positive ionization mode. Compounds and the internal standards were monitored using multiple reaction monitoring (MRM).
The standard curves employed for sample quantitation ranged over several log units. The lower limit of quantitation (LLOQ) in blood was determined and used as cutoff for the analytical sensitivity. Known amounts of the compounds were spiked into blood to create quality control samples with six known concentrations in singlets. The accuracy of the in vivo blood sample concentration determination was considered acceptable when the intra-assay accuracies obtained for the quality control samples were within 70% to 130% of the expected concentrations. Subsequently, from the time concentration data, pharmacokinetic parameters were calculated by non-compartmental regression analyses using an in house fitting program. […]

[2] = Pharmacokinetic study in male Beagle dogs; format: in vivo

Chain of GIRK1/4 (P48549 whole entry): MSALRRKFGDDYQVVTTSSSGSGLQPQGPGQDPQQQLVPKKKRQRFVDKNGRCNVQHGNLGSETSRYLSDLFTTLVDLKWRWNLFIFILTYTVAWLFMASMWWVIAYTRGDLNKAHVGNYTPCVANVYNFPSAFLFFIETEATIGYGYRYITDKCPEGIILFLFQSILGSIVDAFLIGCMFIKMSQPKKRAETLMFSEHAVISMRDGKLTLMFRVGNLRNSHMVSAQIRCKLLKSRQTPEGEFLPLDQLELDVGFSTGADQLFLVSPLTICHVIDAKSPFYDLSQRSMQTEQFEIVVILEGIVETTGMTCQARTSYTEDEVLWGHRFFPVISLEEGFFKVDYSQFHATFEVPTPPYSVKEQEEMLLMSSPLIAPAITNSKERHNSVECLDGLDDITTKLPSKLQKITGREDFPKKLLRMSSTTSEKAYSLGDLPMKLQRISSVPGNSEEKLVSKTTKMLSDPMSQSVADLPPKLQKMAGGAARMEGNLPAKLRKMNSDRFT
Chain of GIRK1/4 (P48544 whole entry): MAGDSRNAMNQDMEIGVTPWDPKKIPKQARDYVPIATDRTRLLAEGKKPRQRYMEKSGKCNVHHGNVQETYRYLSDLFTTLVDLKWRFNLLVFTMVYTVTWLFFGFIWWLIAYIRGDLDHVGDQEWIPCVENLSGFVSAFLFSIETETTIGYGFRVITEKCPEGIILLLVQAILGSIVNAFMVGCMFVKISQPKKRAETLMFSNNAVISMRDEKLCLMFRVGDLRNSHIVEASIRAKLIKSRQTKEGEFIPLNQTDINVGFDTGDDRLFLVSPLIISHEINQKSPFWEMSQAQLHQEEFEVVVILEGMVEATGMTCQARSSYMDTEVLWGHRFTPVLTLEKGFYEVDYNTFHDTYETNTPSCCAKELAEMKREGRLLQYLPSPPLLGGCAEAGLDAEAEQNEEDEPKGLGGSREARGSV

SMILES	IC50 (GIRK1/4) [nM]	Rat AUC0-24 h 3 mg/kg [1] [nMh]	clearance [1] [mL/min/kg]	Rat F [1] [%]	AUC0-24 h ([2]; 0.3 mg/kg IV solution and 1 mg/kg PO suspension) [nMh]	clearance ([2]; dog, in vivo, 0.3 mg/kg IV as a solution, read-out: Clearance (Cl)) [mL/min/kg]	bioavailability ([2]; dog, in vivo, 1 mg/kg PO as a suspension vs 0.3 mg/kg IV, read-out: Oral bioavailability (F)) [%]
CNC(=O)CCOc1ncc(Cl)c2c1c(=O)cc(C)n2-c1c(Cl)cc(OCCO)cc1Cl [Example 1, 3-((8-Chloro-1-(2,6-dichloro-4-(2-hydroxyethoxy)phenyl)-2-methyl-4-oxo-1,4-dihydro-1,6-naphthyridin-5-yl)oxy)-N-methylpropanamide]	90	3270	20.2	71	5270	5.5	87
CNC(=O)COc1ncc(Cl)c2c1c(=O)cc(C)n2-c1c(Cl)cc(OCCO)cc1Cl [Example 5, 2-((8-Chloro-1-(2,6-dichloro-4-(2-hydroxyethoxy)phenyl)-2-methyl-4-oxo-1,4-dihydro-1,6-naphthyridin-5-yl)oxy)-N-methylacetamide]	60	2336	14.6	33			
CNC(=O)CCOc1ncc(Cl)c2c1c(=O)cc(C)n2-c1c(Cl)cc(OC[C@@H](C)O)cc1Cl [Example 6, (R)-3-((8-Chloro-1-(2,6-dichloro-4-(2-hydroxypropoxy)phenyl)-2-methyl-4-oxo-1,4-dihydro-1,6-naphthyridin-5-yl)oxy)-N-methylpropanamide]	130	3570	21.6	82			
CNC(=O)[C@H](C)COc1ncc(Cl)c2c1c(=O)cc(C)n2-c1c(Cl)cc(OCCO)cc1Cl [Example 7, (R)-3-((8-Chloro-1-(2,6-dichloro-4-(2-hydroxyethoxy)phenyl)-2-methyl-4-oxo-1,4-dihydro-1,6-naphthyridin-5-yl)oxy)-N,2-dimethylpropanamide]	70	4410	13.6	61			
CC(=O)NCCOc1ncc(Cl)c2c1c(=O)cc(C)n2-c1c(Cl)cc(OCCO)cc1Cl [Example 9, N-(2-((8-chloro-1-(2,6-dichloro-4-(2-hydroxyethoxy)phenyl)-2-methyl-4-oxo-1,4-dihydro-1,6-naphthyridin-5-yl)oxy)ethyl)acetamide]	80	1460	24.2	40			
CNC(=O)[C@@H](O)COc1ncc(Cl)c2c1c(=O)cc(C)n2-c1c(Cl)cc(OCCO)cc1Cl [Example 13, (S)-3-((8-Chloro-1-(2,6-dichloro-4-(2-hydroxyethoxy)phenyl)-2-methyl-4-oxo-1,4-dihydro-1,6-naphthyridin-5-yl)oxy)-2-hydroxy-N-methylpropanamide]	60	2410	18.4	55			

The next lines start with the values.

IC50 (GIRK1/4) [nM]	Rat AUC0-24 h 3 mg/kg [1] [nMh]	clearance [1] [mL/min/kg]	Rat F [1] [%]	AUC0-24 h ([2]; 0.3 mg/kg IV solution and 1 mg/kg PO suspension) [nMh]	clearance ([2]; dog, in vivo, 0.3 mg/kg IV as a solution, read-out: Clearance (Cl)) [mL/min/kg]	bioavailability ([2]; dog, in vivo, 1 mg/kg PO as a suspension vs 0.3 mg/kg IV, read-out: Oral bioavailability (F)) [%]	SMILES
320	1290	32.8	46				CNC(=O)CCOc1ncc(Cl)c2c1c(=O)cc(C)n2-c1c(Cl)cc(OCC2(O)COC2)cc1Cl [Example 15, 3-((8-Chloro-1-(2,6-dichloro-4-((3-hydroxyoxetan-3-yl)methoxy)phenyl)-2-methyl-4-oxo-1,4-dihydro-1,6-naphthyridin-5-yl)oxy)-N-methylpropanamide]
250	2310	31.7	73				CNC(=O)COc1cc(Cl)c(-n2c(C)cc(=O)c3c(OCC(N)=O)ncc(Cl)c32)c(Cl)c1 [Example 17, 2-(4-(5-(2-Amino-2-oxoethoxy)-8-chloro-2-methyl-4-oxo-1,6-naphthyridin-1(4H)-yl)-3,5-dichlorophenoxy)-N-methylacetamide]
50	1290	27.9	46				CC(=O)NCCCc1ncc(Cl)c2c1c(=O)cc(C)n2-c1c(Cl)cc(OCCO)cc1Cl [Example 19, N-(3-(8-Chloro-1-(2,6-dichloro-4-(2-hydroxyethoxy)phenyl)-2-methyl-4-oxo-1,4-dihydro-1,6-naphthyridin-5-yl)propyl)acetamide]
50	2407	19.8	44				Cc1cc(=O)c2c(CCS(C)(=O)=O)ncc(Cl)c2n1-c1c(Cl)cc(OCCO)cc1Cl [Example 20, 8-Chloro-1-(2,6-dichloro-4-(2-hydroxyethoxy)phenyl)-2-methyl-5-(2-(methylsulfonyl)ethyl)-1,6-naphthyridin-4(1H)-one]
190	1360	23.6	37				Cc1cc(=O)c2c(CCCS(C)(=O)=O)ncc(Cl)c2n1-c1c(Cl)cc(OCC(C)(C)O)cc1Cl [Example 22, 8-Chloro-1-(2,6-dichloro-4-(2-hydroxy-2-methylpropoxy)phenyl)-2-methyl-5-(3-(methylsulfonyl)propyl)-1,6-naphthyridin-4(1H)-one]
